We go through eight molecules from ChEMBL document CHEMBL5150050, “Hybrids of small CD4 mimics and gp41-related peptides as dual-target HIV entry inhibitors” (Bioorg Med Chem, 2022).

Data set [1] has as its system Human immunodeficiency virus 1. The experiment in a line: Antiviral activity against HIV-1 KP-5mvcR infected in human TZM-bl cells assessed as inhibition of viral entry by measuring reduction in RLU at 10 nM by single round assay relative to control. In kind it is functional. Also noted: scale not given: the % may be the effect or the level left.
Data set [2] has as its system Human immunodeficiency virus 1. The experiment in a line: Antiviral activity against HIV-1 KP-5mvcR infected in human TZM-bl cells assessed as inhibition of viral entry by measuring reduction in RLU by single round assay. In kind it is functional, organism-based. The following applies: Human immunodeficiency virus 1, KP-5mvcR.
In another data set the test system is TZM. The data set can be described thus: Cytotoxicity against human TZM-bl cells. In kind it is toxicity, cell-based.

Where a SMILES comes first, the peptide text is derived from it. [ ]: non-standard residue; d: D form. Nle = CCCC[C@H](N)C(=O)O

On to `CCCC[C@H](NC(=O)[C@H](Cc1c[nH]c2ccccc12)NC(C)=O)C(=O)N[C@@H](CCC(=O)O)C(=O)N[C@@H](Cc1c[nH]c2ccccc12)C(=O)N[C@@H](CC(=O)O)C(=O)N[C@@H](CCCNC(=N)N)C(=O)N[C@@H](CCCCN)C(=O)N[C@H](C(=O)N[C@@H](CCC(=O)O)C(=O)N[C@@H](CCC(=O)O)C(=O)N[C@@H](Cc1ccc(O)cc1)C(=O)N[C@H](C(=O)N[C@@H](CCCCN)C(=O)N[C@@H](CCCCN)C(=O)N[C@H](C(=O)N[C@@H](CCCCN)C(=O)N[C@@H](CCCCN)C(=O)N[C@@H](CC(C)C)C(=O)N[C@H](C(=O)N[C@@H](CCC(=O)O)C(=O)N[C@@H](CCC(=O)O)C(=O)N[C@@H](CO)C(=O)N[C@@H](CCC(N)=O)C(=O)N[C@@H](CCC(=O)O)C(=O)N[C@@H](CCC(N)=O)C(=O)N[C@@H](CCC(N)=O)C(=O)N[C@@H](CCC(=O)O)C(=O)N[C@@H](CCCCN)C(=O)N[C@@H](CC(N)=O)C(=O)N[C@@H](CCC(=O)O)C(=O)N[C@@H](CCCCN)C(=O)N[C@@H](CCC(=O)O)C(=O)N[C@@H](CC(C)C)C(=O)N[C@@H](CCCCN)C(=O)N[C@H](CSCC(=O)NCCCC[C@H](NC(=O)[C@H](CO)NC(=O)CNC(=O)CNC(=O)CNC(=O)CNC(=O)CCC(=O)N[C@@H](CCCNC(=N)N)C(=O)NCCN1CCC(NC(=O)C(=O)Nc2ccc(Cl)cc2)CC1)C(N)=O)C(N)=O)[C@@H](C)CC)[C@@H](C)CC)[C@@H](C)O)[C@@H](C)CC`, for which the Activity in data set [1] was 95.6%. Besides, the IC50 in data set [2] was less than 10 nM.

In the case of enfuvirtide, the IC50 in data set [2] was determined as 32 nM.

For the molecule `CC[C@H](C)[C@H](NC(=O)[C@H](CCCCN)NC(=O)[C@H](CCCCN)NC(=O)[C@H](CC(=O)O)NC(=O)[C@H](Cc1c[nH]c2ccccc12)NC(=O)[C@H](CCC(=O)O)NC(=O)[C@H](CCC(=O)O)NC(=O)[C@H](Cc1c[nH]c2ccccc12)NC(C)=O)C(=O)N[C@@H](CCC(=O)O)C(=O)N[C@@H](CCC(=O)O)C(=O)N[C@@H](Cc1ccc(O)cc1)C(=O)N[C@H](C(=O)N[C@@H](CCCCN)C(=O)N[C@@H](CCCCN)C(=O)N[C@H](C(=O)N[C@@H](CCC(=O)O)C(=O)N[C@@H](CCC(=O)O)C(=O)N[C@@H](CC(C)C)C(=O)N[C@H](C(=O)N[C@@H](CCCCN)C(=O)N[C@@H](CCCCN)C(=O)N[C@@H](CO)C(=O)N[C@H](CSCC(=O)NCCCC[C@H](NC(=O)[C@H](CO)NC(=O)CNC(=O)CNC(=O)CNC(=O)CNC(=O)CCC(=O)N[C@@H](CCCNC(=N)N)C(=O)NCCN1CCC(NC(=O)C(=O)Nc2ccc(Cl)cc2)CC1)C(N)=O)C(N)=O)[C@@H](C)CC)[C@@H](C)CC)[C@@H](C)O`, in data set [2], the IC50 is 150 nM.

On to Ac-WEEWDKKIEEYTKKIEELIKKS-NH2, for which the IC50 in data set [2] worked out at 60 nM. The Activity result in the data set with TZM is “Non-Toxic”.

`CCCC[C@H](NC(=O)[C@H](Cc1c[nH]c2ccccc12)NC(C)=O)C(=O)N[C@@H](CCC(=O)O)C(=O)N[C@@H](Cc1c[nH]c2ccccc12)C(=O)N[C@@H](CC(=O)O)C(=O)N[C@@H](CCCNC(=N)N)C(=O)N[C@@H](CCCCN)C(=O)N[C@H](C(=O)N[C@@H](CCC(=O)O)C(=O)N[C@@H](CCC(=O)O)C(=O)N[C@@H](Cc1ccc(O)cc1)C(=O)N[C@H](C(=O)N[C@@H](CCCCN)C(=O)N[C@@H](CCCCN)C(=O)N[C@H](C(=O)N[C@@H](CCCCN)C(=O)N[C@@H](CCCCN)C(=O)N[C@@H](CC(C)C)C(=O)N[C@H](C(=O)N[C@@H](CCC(=O)O)C(=O)N[C@@H](CCC(=O)O)C(=O)N[C@@H](CO)C(=O)N[C@@H](CCC(N)=O)C(=O)N[C@@H](CCC(=O)O)C(=O)N[C@@H](CCC(N)=O)C(=O)N[C@@H](CCC(N)=O)C(=O)N[C@@H](CCC(=O)O)C(=O)N[C@@H](CCCCN)C(=O)N[C@@H](CC(N)=O)C(=O)N[C@@H](CCC(=O)O)C(=O)N[C@@H](CCCCN)C(=O)N[C@@H](CCC(=O)O)C(=O)N[C@@H](CC(C)C)C(=O)N[C@@H](CCCCN)C(=O)N[C@H](CSCC(=O)NCc1cn(CCCC[C@H](NC(=O)[C@H](CO)NC(=O)CNC(=O)CNC(=O)CNC(=O)CNC(=O)CCC(=O)N[C@@H](CCCNC(=N)N)C(=O)NCCN2CCC(NC(=O)C(=O)Nc3ccc(Cl)cc3)CC2)C(N)=O)nn1)C(N)=O)[C@@H](C)CC)[C@@H](C)CC)[C@@H](C)O)[C@@H](C)CC`: the IC50 in data set [2] worked out at 5.5 nM.

`CCCC[C@H](NC(=O)[C@H](Cc1c[nH]c2ccccc12)NC(C)=O)C(=O)N[C@@H](CCC(=O)O)C(=O)N[C@@H](Cc1c[nH]c2ccccc12)C(=O)N[C@@H](CC(=O)O)C(=O)N[C@@H](CCCNC(=N)N)C(=O)N[C@@H](CCCCN)C(=O)N[C@H](C(=O)N[C@@H](CCC(=O)O)C(=O)N[C@@H](CCC(=O)O)C(=O)N[C@@H](Cc1ccc(O)cc1)C(=O)N[C@H](C(=O)N[C@@H](CCCCN)C(=O)N[C@@H](CCCCN)C(=O)N[C@H](C(=O)N[C@@H](CCCCN)C(=O)N[C@@H](CCCCN)C(=O)N[C@@H](CC(C)C)C(=O)N[C@H](C(=O)N[C@@H](CCC(=O)O)C(=O)N[C@@H](CCC(=O)O)C(=O)N[C@@H](CO)C(=O)N[C@@H](CCC(N)=O)C(=O)N[C@@H](CCC(=O)O)C(=O)N[C@@H](CCC(N)=O)C(=O)N[C@@H](CCC(N)=O)C(=O)N[C@@H](CCC(=O)O)C(=O)N[C@@H](CCCCN)C(=O)N[C@@H](CC(N)=O)C(=O)N[C@@H](CCC(=O)O)C(=O)N[C@@H](CCCCN)C(=O)N[C@@H](CCC(=O)O)C(=O)N[C@@H](CC(C)C)C(=O)N[C@@H](CCCCN)C(N)=O)[C@@H](C)CC)[C@@H](C)CC)[C@@H](C)O)[C@@H](C)CC` (Ac-W[Nle]EWDRKIEEYTKKIKKLIEESQEQQEKNEKELK-NH2): the half-maximal inhibitory concentration (IC50) in data set [2] worked out at 0.64 nM. Also, in the data set on TZM, the Activity result was “Non-Toxic”.

In the case of `N=C(N)NCCCCC(=O)NCCN1CCC(NC(=O)C(=O)Nc2ccc(Cl)cc2)CC1`, the IC50 in data set [2] came to 145 nM. Further, the Activity result in the data set on TZM is listed as “Non-Toxic”.

For the molecule `O=C1Nc2ccc(Cl)cc2[C@@](C#CC2CC2)(C(F)(F)F)O1` [EFAVIRENZ], the IC50 in data set [2] amounted to 11 nM.

As a reminder, the IC50 is the concentration that inhibits the measured activity by half.
